Assay results published in patent US10105357B2, “Indication of antibiotic drugs for preparation of cancer inhibition pharmaceutical composition” (LAUNX BIOMEDICAL CO., LTD., priority 2014, dated 2018).
Where a name gives a salt, the structure may show the parent alone. Read-outs that look alike come from different tables or passages of the source.

How the values were obtained:
[1] = test system: PC3 (p53−) (Prostate Adenocarcinoma); experiment: Cell viability analysis, prostate cancer PC3; assay type: cell-based, human
[2] = test system: HepG2 (Hepatocellular Carcinoma); experiment: Cell viability analysis, hepatic cancer HepG2; assay type: cell-based, human
[3] = test system: HCT116 (p53+) (Colorectal Carcinoma); experiment: cells; settings: Homo sapiens, HCT-116, 72 h, read-out: cell viability (survival rate), HCT116
[4] = test system: HI650 (Lung Adenocarcinoma); experiment: Cell viability analysis, lung cancer HI650; assay type: cell-based, human
[5] = test system: MKN-45 (Gastric Adenocarcinoma); experiment: Cell viability analysis, gastric cancer MKN-45; assay type: cell-based, human; settings: Homo sapiens
[6] = test system: TSGH-8301 (Urinary Bladder Carcinoma); experiment: Cell viability analysis, bladder cancer TSGH-8301; assay type: cell-based, human
[7] = test system: LoVo (Colorectal Adenocarcinoma); experiment: Cell viability analysis, colon cancer LoVo; assay type: cell-based, human
[8] = test system: AGS (Gastric Adenocarcinoma); experiment: Cell viability analysis, gastric cancer AGS; assay type: cell-based, human
[9] = test system: HL-60 (Acute Promyelocytic Leukemia); experiment: Cell viability analysis, leukemia HL-60; assay type: cell-based, human
[10] = test system: A549 (Lung Adenocarcinoma); experiment: Cell viability analysis, lung cancer A549; assay type: cell-based, human
[11] = test system: HeLa (Cervix Adenocarcinoma); experiment: Cell viability analysis, cervical cancer HeLa; assay type: cell-based, human
[12] = test system: MCF7 (Mammary Gland, Adenocarcinoma); experiment: Cell viability analysis, breast cancer MCF7; assay type: cell-based, human
[13] = test system: A375 (Amelanotic Melanoma); experiment: Cell viability analysis, skin cancer A375; assay type: cell-based, human
[14] = Homo sapiens, 72 h, read-out: cell viability (survival rate), PC3, drug 10 μM, 72 hours, WST-1, OD450 nm
[15] = Homo sapiens, HepG2, 72 h, read-out: cell viability (survival rate), HepG2, drug 10 μM, 72 hours, WST-1, OD450 nm
[16] = Homo sapiens, NCI-H1650, 72 h, read-out: cell viability (survival rate), H1650, drug 10 μM, 72 hours, WST-1, OD450 nm
[17] = MKN-45, 72 h, read-out: cell viability (survival rate), MKN-45, drug 10 μM, 72 hours, WST-1, OD450 nm
[18] = Homo sapiens, 72 h, read-out: cell viability (survival rate), TSGH, drug 10 μM, 72 hours, WST-1, OD450 nm
[19] = Homo sapiens, LoVo, 72 h, read-out: cell viability (survival rate), LoVo, drug 10 μM, 72 hours, WST-1, OD450 nm
[20] = Homo sapiens, 72 h, read-out: cell viability (survival rate), AGS, drug 10 μM, 72 hours, WST-1, OD450 nm
[21] = Homo sapiens, HL-60, 72 h, read-out: cell viability (survival rate), HL-60, drug 10 μM, 72 hours, WST-1, OD450 nm
[22] = Homo sapiens, A549, 72 h, read-out: cell viability (survival rate), A549, drug 10 μM, 72 hours, WST-1, OD450 nm
[23] = Homo sapiens, HeLa, 72 h, read-out: cell viability (survival rate), HeLa, drug 10 μM, 72 hours, WST-1, OD450 nm
[24] = Homo sapiens, MCF7, 72 h, read-out: cell viability (survival rate), MCF7, drug 10 μM, 72 hours, WST-1, OD450 nm
[25] = Homo sapiens, A-375, 72 h, read-out: cell viability (survival rate), A375, drug 10 μM, 72 hours, WST-1, OD450 nm
[26] = Homo sapiens; drug 10 μM, 72 hours, WST-1, OD450 nm; read-out: cell viability (survival rate), PC3
[27] = Homo sapiens, HepG2; drug 10 μM, 72 hours, WST-1, OD450 nm; read-out: cell viability (survival rate), HepG2
[28] = Homo sapiens, NCI-H1650; drug 10 μM, 72 hours, WST-1, OD450 nm; read-out: cell viability (survival rate), H1650
[29] = Homo sapiens; drug 10 μM, 72 hours, WST-1, OD450 nm; read-out: cell viability (survival rate), TSGH
[30] = Homo sapiens, LoVo; drug 10 μM, 72 hours, WST-1, OD450 nm; read-out: cell viability (survival rate), LoVo
[31] = Homo sapiens; drug 10 μM, 72 hours, WST-1, OD450 nm; read-out: cell viability (survival rate), AGS
[32] = Homo sapiens, HL-60; drug 10 μM, 72 hours, WST-1, OD450 nm; read-out: cell viability (survival rate), HL-60
[33] = Homo sapiens, A549; drug 10 μM, 72 hours, WST-1, OD450 nm; read-out: cell viability (survival rate), A549
[34] = Homo sapiens, HeLa; drug 10 μM, 72 hours, WST-1, OD450 nm; read-out: cell viability (survival rate), HeLa
[35] = Homo sapiens, MCF7; drug 10 μM, 72 hours, WST-1, OD450 nm; read-out: cell viability (survival rate), MCF7
[36] = Homo sapiens, A-375; drug 10 μM, 72 hours, WST-1, OD450 nm; read-out: cell viability (survival rate), A375

SMILES | viability at 10 µM [3] [%] | viability at 10 µM [1, 14] [%] | viability at 10 µM [2, 15] [%] | viability at 10 µM [4, 16] [%] | viability at 10 µM [5, 17] [%] | viability at 10 µM [6, 18] [%] | viability at 10 µM [7, 19] [%] | viability at 10 µM [8, 20] [%] | viability at 10 µM [9, 21] [%] | viability at 10 µM [10, 22] [%] | viability at 10 µM [11, 23] [%] | viability at 10 µM [12, 24] [%] | viability at 10 µM [13, 25] [%] | also measured
C[N+](C)(C)CCO.[Cl-] [Choline Chloride] | 104 | – | – | – | – | – | – | – | – | – | – | – | – | viability at 10 µM ([1]; Homo sapiens, 72 h, read-out: cell viability (survival rate), PC3): 106%; viability at 10 µM ([2]; Homo sapiens, HepG2, 72 h, read-out: cell viability (survival rate), HepG2): 103%; viability at 10 µM ([4]; Homo sapiens, NCI-H1650, 72 h, read-out: cell viability (survival rate), H1650): 90.2%; viability at 10 µM ([5]; MKN-45, 72 h, read-out: cell viability (survival rate), MKN-45): 99.3%; viability at 10 µM ([6]; Homo sapiens, 72 h, read-out: cell viability (survival rate), TSGH): 129%; viability at 10 µM ([7]; Homo sapiens, LoVo, 72 h, read-out: cell viability (survival rate), LoVo): 76.7%; viability at 10 µM ([8]; Homo sapiens, 72 h, read-out: cell viability (survival rate), AGS): 97.1%; viability at 10 µM ([9]; Homo sapiens, HL-60, 72 h, read-out: cell viability (survival rate), HL-60): 91.1%; viability at 10 µM ([10]; Homo sapiens, A549, 72 h, read-out: cell viability (survival rate), A549): 96%; viability at 10 µM ([11]; Homo sapiens, HeLa, 72 h, read-out: cell viability (survival rate), HeLa): 103%; viability at 10 µM ([12]; Homo sapiens, MCF7, 72 h, read-out: cell viability (survival rate), MCF7): 108%; viability at 10 µM ([13]; Homo sapiens, A-375, 72 h, read-out: cell viability (survival rate), A375): 132%
O[C@@H]1CO[C@H]2[C@@H]1OC[C@@H]2O [Isosorbide] | 55.1 | 94.3 | 90.1 | 73.3 | 93.1 | 77.5 | 81.8 | 69 | 125 | 60.7 | 72.8 | 78.6 | 53.5 | –
CCCCC(CC)CNC(=N)NC(=N)NCCCCCCNC(=N)NC(=N)NCC(CC)CCCC (stereo not drawn) [Alexidine HCl] | 65.8 | – | – | – | – | – | 54.6 | – | – | – | – | – | – | viability at 10 µM ([1]; Homo sapiens, 72 h, drug 10 μM, 72 hours, WST-1, OD450 nm; read-out: cell viability (survival rate), PC3): 38%; viability at 10 µM ([2]; Homo sapiens, HepG2, 72 h, drug 10 μM, 72 hours, WST-1, OD450 nm; read-out: cell viability (survival rate), HepG2): 65.9%; viability at 10 µM ([4]; Homo sapiens, NCI-H1650, 72 h, drug 10 μM, 72 hours, WST-1, OD450 nm; read-out: cell viability (survival rate), H1650): 57.5%; viability at 10 µM ([5]; MKN-45, 72 h, drug 10 μM, 72 hours, WST-1, OD450 nm, read-out: cell viability (survival rate), MKN-45): 64.4%; viability at 10 µM ([6]; Homo sapiens, 72 h, drug 10 μM, 72 hours, WST-1, OD450 nm; read-out: cell viability (survival rate), TSGH): 36.6%; viability at 10 µM ([8]; Homo sapiens, 72 h, drug 10 μM, 72 hours, WST-1, OD450 nm; read-out: cell viability (survival rate), AGS): 45.1%; viability at 10 µM ([9]; Homo sapiens, HL-60, 72 h, drug 10 μM, 72 hours, WST-1, OD450 nm; read-out: cell viability (survival rate), HL-60): 29.4%; viability at 10 µM ([10]; Homo sapiens, A549, 72 h, drug 10 μM, 72 hours, WST-1, OD450 nm; read-out: cell viability (survival rate), A549): 25.3%; viability at 10 µM ([11]; Homo sapiens, HeLa, 72 h, drug 10 μM, 72 hours, WST-1, OD450 nm; read-out: cell viability (survival rate), HeLa): 44.9%; viability at 10 µM ([12]; Homo sapiens, MCF7, 72 h, drug 10 μM, 72 hours, WST-1, OD450 nm; read-out: cell viability (survival rate), MCF7): 34.8%; viability at 10 µM ([13]; Homo sapiens, A-375, 72 h, drug 10 μM, 72 hours, WST-1, OD450 nm; read-out: cell viability (survival rate), A375): 38.1%
COc1cc(/C=C/C(=O)CC(=O)/C=C/c2ccc(O)c(OC)c2)ccc1O [Curcumin] | 93.6 | 77.9 | 98.3 | 74.7 | 46.4 | 95.4 | 80 | 72.2 | 111 | 105 | 66.2 | 61.8 | 104 | –
COC(=O)C1=CO[C@@H](O)[C@@H]2C(CO)=CC[C@H]12 [Genipin] | 82.7 | 71.6 | 87.1 | 69.5 | 54.1 | 67.7 | – | 49.6 | 117 | 61.8 | 74.5 | 71.7 | 78 | –
CCC1(C)CC(=O)NC(=O)C1 [Bemegride] | 47.7 | – | – | – | – | – | – | – | – | – | – | – | – | viability at 10 µM [1, 26]: 113%; viability at 10 µM [2, 27]: 90.7%; viability at 10 µM [4, 28]: 69.9%; viability at 10 µM ([5]; MKN-45, drug 10 μM, 72 hours, WST-1, OD450 nm, read-out: cell viability (survival rate), MKN-45): 99.7%; viability at 10 µM [6, 29]: 93.3%; viability at 10 µM [7, 30]: 88.5%; viability at 10 µM [8, 31]: 62%; viability at 10 µM [9, 32]: 125%; viability at 10 µM [10, 33]: 60.2%; viability at 10 µM [11, 34]: 62.7%; viability at 10 µM [12, 35]: 123%; viability at 10 µM [13, 36]: 62.7%
C[C@@H]1CCC[C@H](C)N1NC(=O)c1ccc(Cl)c(S(N)(=O)=O)c1 [Clopamide] | 102 | 40.3 | 92.8 | 54 | 89.4 | 59 | 54.3 | 50.3 | 102 | 32.4 | 87.1 | 33.4 | 63.1 | –
Cc1cc(O)ccc1Cl [Chlorocresol] | 61.7 | – | – | – | – | – | – | – | – | – | – | – | – | viability at 10 µM ([1]; Homo sapiens, 72 h; read-out: cell viability (survival rate), PC3): 130%; viability at 10 µM ([2]; Homo sapiens, HepG2, 72 h; read-out: cell viability (survival rate), HepG2): 98.6%; viability at 10 µM ([4]; Homo sapiens, NCI-H1650, 72 h; read-out: cell viability (survival rate), H1650): 91.5%; viability at 10 µM ([6]; Homo sapiens, 72 h; read-out: cell viability (survival rate), TSGH): 113%; viability at 10 µM ([7]; Homo sapiens, LoVo, 72 h; read-out: cell viability (survival rate), LoVo): 62%; viability at 10 µM ([8]; Homo sapiens, 72 h; read-out: cell viability (survival rate), AGS): 103%; viability at 10 µM ([9]; Homo sapiens, HL-60, 72 h; read-out: cell viability (survival rate), HL-60): 96.4%; viability at 10 µM ([10]; Homo sapiens, A549, 72 h; read-out: cell viability (survival rate), A549): 80.1%; viability at 10 µM ([11]; Homo sapiens, HeLa, 72 h; read-out: cell viability (survival rate), HeLa): 96.3%; viability at 10 µM ([12]; Homo sapiens, MCF7, 72 h; read-out: cell viability (survival rate), MCF7): 64.2%; viability at 10 µM ([13]; Homo sapiens, A-375, 72 h; read-out: cell viability (survival rate), A375): 65.4%
O=c1cc[nH]c(=O)[nH]1 [Uracil] | 94.3 | 163 | 100 | 91.8 | – | 104 | 70.2 | 82.9 | 98.7 | 80.5 | 107 | 103 | 98.2 | –
CNC[C@H](O)[C@@H](O)[C@H](O)[C@H](O)CO [Meglumine] | 92.7 | – | – | – | – | – | – | – | – | – | – | – | – | viability at 10 µM [1, 26]: 76.8%; viability at 10 µM [2, 27]: 90.8%; viability at 10 µM [4, 28]: 62%; viability at 10 µM [6, 29]: 109%; viability at 10 µM [7, 30]: 78.4%; viability at 10 µM [8, 31]: 95%; viability at 10 µM [9, 32]: 114%; viability at 10 µM [10, 33]: 108%; viability at 10 µM [11, 34]: 74.1%; viability at 10 µM [12, 35]: 97%; viability at 10 µM [13, 36]: 78.2%
